Experimental data from patent US6399606B1, “Neuroprotective agents and methods related thereto” (Nippon Kayaku Co., Ltd., priority 1999, dated 2002).

System: rat taxol induced neuropathy model
Assay: Rat taxol neuropathy model (sensory nerve conduction velocity)
Format: in vivo, Sprague-Dawley female rats
Settings: once daily
Method: In vivo efficacy of representative compounds were tested with rat taxol induced neuropathy model reported by Cliffer et al. (Ann. Neurol 43:46-55, 1998).
Method Sprague-Dawley female rats (215-225g) were used. One week prior to the initiation of dosing with test compounds, base line electrophysiological recording were obtained. Dosing of the test compounds was initiated one day prior to the first injection of taxol (A.G. Scientific). Beginning on Day 2 animals were injected with total of two doses of 15 mg/kg paclitaxel giving 3 days apart, for a cumulative dose of […].
On Day 1 of the study, all rat were randomized into groups of 10 each and weighed. Dosing with test compounds was initiated on Day 1 and continued for a total of 45 days. Test compounds were administered by intraperitoneal (i.p.) injection or by post orum (p.o.) gavage in conscious once daily. Paclitaxel was administered on Day 2 and 5 by tail vein injection at 6 mg/ml in 50% saline/25%Cremophore/25% ethanol. One group was given the paclitaxel vehicle alone in an equivalent volume. Test compounds were formulated for dosing daily, immediately prior to dosing. The compounds were formulated by adding 15% of the final volume of pure PEG400 to the compounds and mixed on an orbital shaker for 40 minutes. Following dissolution, saline was added and the solution was vortexed. Taxol (A.G. Scientific) is solvated with Cremophore-ethanol vehicle at 12 mg/ml and then diluted 50/50 with saline. The test compounds are solvated with saline at appropriate concentration.
Sensory and motor nerve conduction velocities were evaluated using a method based in the protocol described by De Koning and Gispen (Peptides 8:415-422, 1987). Electrophysiological evaluation was carried out as a double blind study. Animals were anesthetized with isofluorane. In order to maintain body temperature, anesthetized animals were placed on Deltaphase ™ Isothermal Pads and rectal temperatures were monitored. Stimulating needle electrodes were inserted close to the sciatic nerve at the sciatic notch and the tibial nerve near the ankle. Subcutaneous recording electrodes were placed over the distal lumbricales foot muscles. Stimuli were supramaximal square-waves of 0.1 msec duration generated with a Grass S88 Stimulator through a Grass stimulation isolation unit. An ETH-260 Bride/Bio Amplifier (CB Sciences Inc), computer (Macintosh Iici), and data acquisition system (MacLab/200) were used for the recordings. The motor and sensory nerve conduction velocities were calculated by measuring the distance between the sciatic notch and ankle sites, and the latency between the M-wave and the H-reflex. The electrophysiological evaluations were conducted 2 weeks later. Statistical analysis was carried out using unpaired t-tests and repeated measures of analysis of variance (ANOVA) using Statview. In all cases 5% was chosen as the level of statistical significance in two-tailed tests.

[1] = p.o. administration, 20 mg/kg, FIG. 2, 3

## COC(=O)CC(CSC[C@H](NC(C)=O)C(=O)OC)C(=O)c1cccnc1 (stereo partly drawn) [compound 60]
i.p. administration at 10 mg/kg, FIG. 1, 3
  amelioration of taxol-induced retardation of sensory nerve conduction velocity: active

## CC(=O)NCCSCC(CC(=O)N(C)C)C(=O)c1cccnc1 (stereo not drawn) [compound 188]
p.o. administration, 40 mg/kg, FIG. 2, 3
  amelioration of taxol-induced retardation of sensory nerve conduction velocity: active

## CC(=O)NCCSCC(CC(=O)N1CCCCC1)C(=O)c1cccnc1 (stereo not drawn) [compound 189]
i.p. administration at 2.5 mg/kg, FIG. 2
  amelioration of taxol-induced retardation of sensory nerve conduction velocity: active
[1]
  amelioration of taxol-induced retardation of sensory nerve conduction velocity: active

## CCN(CC)CCN(C)C(=O)C(CSCC(CC(=O)N(C)C)C(=O)c1cccnc1)NC(C)=O (stereo not drawn) [compound 438]
[1]
  amelioration of taxol-induced retardation of sensory nerve conduction velocity: active

## CC(=O)N[C@@H](CSCC(CC(=O)N(C)C)C(=O)c1cccnc1)C(=O)N1CCN(C)CC1 (stereo partly drawn) [compound 440]
[1]
  amelioration of taxol-induced retardation of sensory nerve conduction velocity: active
